Source: PMC6268586, “Effect of Wine and Vinegar Processing of Rhizoma Corydalis on the Tissue Distribution of Tetrahydropalmatine, Protopine and Dehydrocorydaline in Rats” (Molecules, 2012)
Where two headings read alike, the source gives them in different places.

Assay: Tissue distribution of THP, DHC and protopine in rat tissues after gastric gavage administration (HPLC-UV, non-compartmental analysis)
Type: in vivo, Wistar male rats
Settings: male, Wistar, po, 4.52 mg/kg; for AUC(0-t): read-out: AUC0–24 h of protopine; for Cmax: read-out: Cmax of protopine; for MRT: read-out: MRT of protopine; for Tmax: read-out: Tmax of protopine
Description: The experimental protocol was approved by the University's Animal Ethics Committee. […] Rats had unlimited access to water. Standard food was given until 12 h before the experiments. Rhizoma Corydalis was processed according to Pharmacopoeia of Chinese Medicine and National Guideline of Traditional Chinese Medicinal Plants Processing. Briefly, fresh Rhizoma Corydalis was boiled in water till the pith turn light brown color. Cooked rhizome was sliced into pieces (4 mm, diameter) and dried at 25 °C. Dried slices were mixed with edible vinegar (100:20, rhizome/vinegar, w/v) or yellow wine (100:10, rhizome/wine, w/v) and the slices allowed to completely absorb the vinegar or wine. The soaked slices were then stir-fried in a metallic pan over a low flame till they were completely dry. The processed Rhizoma Corydalis was added with 70% ethanol (1:30 w/v) and sonicated for 1 h at room temperature. The extract was then concentrated to remove the ethanol residue and stored at 4 °C for further use. […] The ethanol extract of the unprocessed Rhizoma Corydalis and THP, DHC and protopine pure compound were used as the controls. Three hundred and sixty healthy rats were used in total and are divided into six groups (Group 1-6, sixty rats per group). Drugs were administrated by gastric gavage method. In order to keep the dose of THP, DHC and protopine constant in each group, the amount of ethanol extract of Rhizoma Corydalis administrated was normalized based on the dose of protopine pure compound used. The dose of THP and DHC pure compound administrated was same with that in the ethanol extract of Rhizoma Corydalis. The details were listed below. […] Rats were administrated with the 70% ethanol extract of unprocessed Rhizoma Corydalis at a dose of 17.75 g extract/kg body weight. […] Rats received the extract of vinegar-processed Rhizoma Corydalis at a dose of 15 g extract/kg rat body weight. Group 3: Rats were administrated with the extract of wine processed Rhizoma Corydalis at a dose of 15.78 g extract/kg body weight. […] Rats received THP pure compound at a dose of 6.45 mg/kg body weight. Group 6: Rats were administrated 26.10 mg of DHC pure compound/kg body weight. […] Brian tissue was further dissected into six parts: cerebrum, cerebellum, diencephalons, brain stem, hippocampus and striatum. All the tissue samples were rinsed with ice-old saline and stored at -20 °C until extraction. Tissue samples were homogenized in three volumes of ice-cold biological saline and centrifuged for 10 min at 10,000 g and 4 °C. An aliquot of the supernatant (0.5 mL) was collected. Liquid-liquid extraction was used to extract THP, DHC and protopine. One hundred microliter of 1.0 μg/mL nuciferin (internal standard) was mixed with 0.5 mL aliquots of the supernatant. […] The supernatant was evaporated completely under the nitrogen stream in a 60 °C water bath. The residue was redissolved in 100 μL of methanol. A CoMetro HPLC system (CoMetro Technology Ltd, South […], NJ, USA) with 6000 PVW detector UV-VIS detector was used. […] Ltd., Liaoning, China). Other chromatographic conditions were: column temperature, 35 °C; mobile phase, acetonitrile-0.1% phosphoric acid (pH 3.0) (30:70 v/v); flow rate, 1 mL/min; wavelength, 280 nm. Pharmacokinetic parameters were estimated by non-compartmental analysis using Equiv Test/PK (Statistical Solutions Ltd., Saugus, MA, USA). The maximum concentration (Cmax) and the time to reach the maximum concentration (Tmax) were directly obtained from the observed value. All data were represented as mean ± SD. Comparison of values between groups was performed using one-way ANOVA followed by Tukey's test for comparisons among four groups.

[1] = diencephalon, rat diencephalons

Question: With `CN1CCc2cc3c(cc2C(=O)Cc2ccc4c(c2C1)OCO4)OCO3` [protopine] as the molecule, how does the AUC(0-t) [1] read?
Answer: 3180 ± 70 ng·h/mL

Question: What about the Cmax [1] of the same molecule?
Answer: 1310 ± 270 ng/mL

Question: And the MRT [1]?
Answer: 4.89 ± 0.01 h

Question: What about the Tmax [1] of the same molecule?
Answer: 2.07 ± 0.21 h

Question: What about the AUC(0-t) (rat brain stem) of the same molecule?
Answer: 2020 ± 420 ng·h/mL

Question: And the Cmax (rat brain stem)?
Answer: 820 ± 170 ng/mL

Question: What about the MRT (rat brain stem) of the same molecule?
Answer: 3.9 ± 0.14 h

Question: And the Tmax (rat brain stem)?
Answer: 2.2 ± 0.01 h

Question: And the AUC(0-t) (rat cerebellum)?
Answer: 3800 ± 830 ng·h/mL

Question: What about the Cmax (rat cerebellum) of the same molecule?
Answer: 1560 ± 320 ng/mL

Question: What about the MRT (rat cerebellum) of the same molecule?
Answer: 4.86 ± 0.08 h

Question: What about the Tmax (rat cerebellum) of the same molecule?
Answer: 2.08 ± 0.01 h

Question: What about the AUC(0-t) (rat cerebrum) of the same molecule?
Answer: 3650 ± 780 ng·h/mL

Question: And the Cmax (rat cerebrum)?
Answer: 1350 ± 270 ng/mL

Question: And the MRT (rat cerebrum)?
Answer: 3.93 ± 0.06 h

Question: What about the Tmax (rat cerebrum) of the same molecule?
Answer: 2.1 ± 0.8 h

Question: What about the AUC(0-t) (rat heart) of the same molecule?
Answer: 6230 ± 1560 ng·h/mL

Question: What about the Cmax (rat heart) of the same molecule?
Answer: 1500 ± 450 ng/mL

Question: What about the MRT (rat heart) of the same molecule?
Answer: 5.93 ± 0.02 h

Question: And the Tmax (rat heart)?
Answer: 5.28 ± 0.42 h

Question: What about the AUC(0-t) (rat hippocampus) of the same molecule?
Answer: 3660 ± 810 ng·h/mL

Question: And the Cmax (rat hippocampus)?
Answer: 1560 ± 310 ng/mL

Question: And the MRT (rat hippocampus)?
Answer: 5.23 ± 0.1 h

Question: What about the Tmax (rat hippocampus) of the same molecule?
Answer: 2.09 ± 0.04 h

Question: What about the AUC(0-t) (rat kidney) of the same molecule?
Answer: 13400 ± 2650 ng·h/mL

Question: And the Cmax (rat kidney)?
Answer: 4420 ± 1310 ng/mL

Question: What about the MRT (rat kidney) of the same molecule?
Answer: 5.53 ± 0.04 h

Question: And the Tmax (rat kidney)?
Answer: 5.13 ± 0.04 h

Question: What about the AUC(0-t) (rat liver) of the same molecule?
Answer: 27800 ± 6980 ng·h/mL

Question: And the Cmax (rat liver)?
Answer: 6670 ± 1970 ng/mL

Question: And the MRT (rat liver)?
Answer: 5.69 ± 0.03 h

Question: And the Tmax (rat liver)?
Answer: 5.09 ± 0.68 h

Question: What about the AUC(0-t) (rat lung) of the same molecule?
Answer: 50200 ± 12500 ng·h/mL

Question: And the Cmax (rat lung)?
Answer: 11200 ± 3310 ng/mL

Question: And the MRT (rat lung)?
Answer: 5.85 ± 0.04 h

Question: What about the Tmax (rat lung) of the same molecule?
Answer: 5.22 ± 0.47 h

Question: What about the AUC(0-t) (rat spleen) of the same molecule?
Answer: 35000 ± 8180 ng·h/mL

Question: And the Cmax (rat spleen)?
Answer: 7420 ± 2220 ng/mL

Question: What about the MRT (rat spleen) of the same molecule?
Answer: 5.65 ± 0.03 h

Question: And the Tmax (rat spleen)?
Answer: 5.22 ± 0.05 h

Question: And the AUC(0-t) (rat striatum)?
Answer: 6420 ± 1520 ng·h/mL

Question: And the Cmax (rat striatum)?
Answer: 1950 ± 400 ng/mL

Question: And the MRT (rat striatum)?
Answer: 6.57 ± 0.43 h

Question: And the Tmax (rat striatum)?
Answer: 2.07 ± 0.08 h
